What follows are compounds tested against T1, PTK2 enzyme (Homo sapiens, UniProt Q05397) (assay: PTK2 enzyme test, Assay 1 (DELFIA, poly-Glu-Tyr substrate, antibody PT60)). Details: Assay 1 (values without *); 1 h pre-incubation, 2% DMSO.
T1 construct: purchased Invitrogen PV3832
Assay type: biochemical
Experimental: This test uses active PTK2 enzyme (Invitrogen Code PV3832) and poly-Glu-Tyr (4:1, Sigma P-0275) as the kinase substrate. The kinase activity is detected through the phosphorylation of the substrate in a DELFIA™ assay. The phosphorylated substrate is detected with the europium-labelled phosphotyrosine antibody PT60 (Perkin Elmer, No.: AD00400).
In order to determine concentration-activity curves with PTK2-inhibitors the compounds are serially diluted in 10% DMSO/H2O and 10 μL of each dilution are placed in each well of a 96-well microtitre plate (clear plate with a U-shaped base, Greiner No. 650101) (the inhibitors are tested in duplicates) and mixed with 10 μL/well of PTK2 kinase (0.01 μg/well). PTK2 kinase has been correspondingly diluted beforehand with kinase dilution buffer (20 mM TRIS/HCl pH 7.5, 0.1 mM EDTA, 0.1 mM EGTA, 0.286 mM sodium orthovanadate, 10% glycerol with the addition of freshly prepared BSA (fraction V, 1 mg/mL) and DTT (1 mM)). The test compound and the PTK2 kinase are pre-incubated for 1 h at RT and shaken at 500 revolutions per min. The reaction is started by the addition of 10 μL/well poly (Glu,Tyr) substrate (25 μg/well poly (Glu, Tyr), 0.05 μg/well biotinylated poly (Glu,Tyr) dissolved in 250 mM TRIS/HCl pH 7.5, 9 mM DTT)—the final concentration of DMSO is 2%. Then 20 μL of ATP Mix (30 mM TRIS/HCl pH 7.5, 0.02% Brij, 0.2 mM sodium orthovanadate, 10 mM magnesium acetate, 0.1 mM EGTA, 1× phosphatase inhibitor cocktail 1 (Sigma, No.: P2850), 50 μM ATP (Sigma, No.: A3377; 15 mM stock solution)) are added. After 1 h of kinase reaction (the plates are shaken at 500 rpm), the reaction is stopped by the addition of 12 μL/well 100 mM EDTA, pH 8.0 and shaken for a further 5 min at RT (500 rpm). 55 μL of the reaction mixture are transferred into a streptavidin plate (Strepta Well High Bind (transparent, 96-well) made by Roche, No.: 11989685001) and incubated for 1 h at RT (shaking at 500 rpm). Then the microtitre plate is washed three times with 200 μL/well D-PBS (Invitrogen, No. 14190). 100 μL of a solution containing DELFIA Eu-N1 Anti-Phosphotyrosine PT60 antibody (Perkin Elmer, No.: AD0040, diluted 1:2000 in DELFIA test buffer (Perkin Elmer, No.: 1244-111)) is then added and the mixture is incubated for 1 h at RT (shaking at 500 rpm). Then the plate is washed three times with 200 μL/well DELFIA washing buffer (Perkin Elmer, No.: 1244-114), 200 μL/well strengthening solution (Perkin Elmer, No.: 1244-105) are added and the mixture is incubated for 10 min at RT (shaking at 300 rpm).
The time-delayed europium fluorescence is then measured in a microtitre plate reader (VICTOR^3, Perkin Elmer). […] Wells that contain test buffer instead of enzyme are used as a control of the background kinase activity.
The IC50 values are determined from analyses of the concentration activity by iterative calculation with the aid of a sigmoid curve analysis algorithm (FIFTY, based on Graph PAD Prism Version 3.03) with a variable Hill coefficient.

T1 sequence (Q05397 whole entry): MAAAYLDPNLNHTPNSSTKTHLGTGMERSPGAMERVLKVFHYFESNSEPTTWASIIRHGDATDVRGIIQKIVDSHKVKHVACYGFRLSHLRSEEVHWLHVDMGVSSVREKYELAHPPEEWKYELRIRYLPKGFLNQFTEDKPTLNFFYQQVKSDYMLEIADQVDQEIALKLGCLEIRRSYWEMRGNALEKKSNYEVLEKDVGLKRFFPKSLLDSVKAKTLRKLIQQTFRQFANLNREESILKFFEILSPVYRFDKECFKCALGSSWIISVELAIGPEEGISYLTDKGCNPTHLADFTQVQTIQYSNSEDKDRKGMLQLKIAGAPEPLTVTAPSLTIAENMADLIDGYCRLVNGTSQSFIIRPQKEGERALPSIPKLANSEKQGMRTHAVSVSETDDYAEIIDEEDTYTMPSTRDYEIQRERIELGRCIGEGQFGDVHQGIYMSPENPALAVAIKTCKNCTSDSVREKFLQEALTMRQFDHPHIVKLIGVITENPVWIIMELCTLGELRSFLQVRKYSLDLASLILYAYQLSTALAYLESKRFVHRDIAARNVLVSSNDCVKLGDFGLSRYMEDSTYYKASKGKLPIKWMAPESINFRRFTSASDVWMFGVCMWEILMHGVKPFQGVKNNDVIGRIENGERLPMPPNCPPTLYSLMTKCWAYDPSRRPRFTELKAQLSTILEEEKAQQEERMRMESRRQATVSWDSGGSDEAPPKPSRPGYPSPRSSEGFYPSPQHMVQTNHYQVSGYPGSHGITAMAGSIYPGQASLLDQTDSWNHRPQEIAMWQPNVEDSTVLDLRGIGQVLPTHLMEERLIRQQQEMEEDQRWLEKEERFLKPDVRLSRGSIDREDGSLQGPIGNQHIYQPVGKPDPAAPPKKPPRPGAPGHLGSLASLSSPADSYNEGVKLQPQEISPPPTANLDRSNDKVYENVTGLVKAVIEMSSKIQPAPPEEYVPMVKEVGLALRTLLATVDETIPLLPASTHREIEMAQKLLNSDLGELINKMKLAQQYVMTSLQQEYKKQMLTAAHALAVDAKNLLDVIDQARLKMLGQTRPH

SMILES	IC50 [nM]
COCCNC(=O)c1ccc(Nc2ncc(C(F)(F)F)c(N[C@@H]3CCCC[C@H]3N(C)C(C)=O)n2)c(OC)c1 [Example I-110]	2
COc1cc(C(=O)N[C@@H]2CCCN(C)C2)ccc1Nc1ncc(C(F)(F)F)c(N[C@@H]2CCCC[C@H]2N(C)C(C)=O)n1 [Example I-111]	1
COc1cc(C(=O)NCCCN(C)C)ccc1Nc1ncc(C(F)(F)F)c(N[C@@H]2CCCC[C@H]2N(C)C(C)=O)n1 [Example I-112]	1
CON[C@H]1CCCC[C@H]1Nc1nc(Nc2ccc(C(=O)NC3CCN(C)CC3)cc2OC)ncc1C(F)(F)F [Example I-113]	5
COc1cc(C(=O)NC2CCN(C)CC2)ccc1Nc1ncc(C(F)(F)F)c(N[C@@H]2CCCC[C@@H]2N(OC)C(C)=O)n1 [Example I-114]	1
COc1cc(CN2CCOCC2)ccc1Nc1ncc(C(F)(F)F)c(N[C@@H]2CCCC[C@H]2NC(C)=O)n1 [Example I-115]	1
COc1cc(CN2CCN(C)CC2)ccc1Nc1ncc(C(F)(F)F)c(N[C@@H]2CCCC[C@H]2NC(C)=O)n1 [Example I-116]	1
COc1cc(CN2CCCC2)ccc1Nc1ncc(C(F)(F)F)c(N[C@@H]2CCCC[C@H]2NC(C)=O)n1 [Example I-117]	1
COc1cc(CN(C)C)ccc1Nc1ncc(C(F)(F)F)c(N[C@@H]2CCCC[C@H]2NC(C)=O)n1 [Example I-118]	1
CON[C@@H]1CCCC[C@H]1Nc1nc(Nc2ccc(C(=O)NC3CCN(C)CC3)cc2OC)ncc1C(F)(F)F [Example I-119]	6
CCC(=O)N[C@@H]1CCCC[C@H]1Nc1nc(Nc2cc(F)c(C(=O)NC3CCN(C)CC3)cc2OC)ncc1C(F)(F)F [Example I-120]	2
COc1cc(C(=O)NC2CCN(C)CC2)c(F)cc1Nc1ncc(C(F)(F)F)c(N[C@@H]2CCCC[C@H]2NC(=O)C(C)C)n1 [Example I-121]	3
CCN1CCC(NC(=O)c2ccc(Nc3ncc(C(F)(F)F)c(N[C@@H]4CCC[C@H]4N(C)S(C)(=O)=O)n3)c(OC)c2)CC1 [Example I-129]	0.73
COc1cc(C(=O)NOCCN(C)C)ccc1Nc1ncc(C(F)(F)F)c(N[C@@H]2CCCC[C@H]2N(C)S(C)(=O)=O)n1 [Example I-132]	0.93
COc1cc(C(=O)NC2CCN(C)CC2)c(F)cc1Nc1ncc(C(F)(F)F)c(N[C@@H]2CCCC[C@H]2NS(C)(=O)=O)n1 [Example I-141]	1
COc1cc(N2CCN(C)CC2)ccc1Nc1ncc(C(F)(F)F)c(N[C@@H]2CCCC[C@H]2N(C)S(C)(=O)=O)n1 [Example I-143]	0.94
COc1cc(N2CCN(C(C)(C)C)CC2)ccc1Nc1ncc(C(F)(F)F)c(N[C@@H]2CCCC[C@H]2N(C)S(C)(=O)=O)n1 [Example I-145]	3
CCN([C@@H]1CCCC[C@H]1Nc1nc(Nc2ccc(C(=O)NC3CCCN(C)C3)cc2OC)ncc1C(F)(F)F)S(C)(=O)=O (stereo partly drawn) [Example I-149]	2

Next, values leading:

IC50 [nM]	SMILES
2	COc1cc(N2CCN(CC(=O)N(C)C)CC2)ccc1Nc1ncc(C(F)(F)F)c(N[C@@H]2CCCC[C@H]2N(C)S(C)(=O)=O)n1 [Example I-150]
1	COc1cc(C(=O)NC2CCN(C)CC2)c(F)cc1Nc1ncc(C(F)(F)F)c(N[C@@H]2CCCC[C@H]2NC(C)=O)n1 [Example I-154]
2	CCS(=O)(=O)N(C)[C@@H]1CCCC[C@H]1Nc1nc(Nc2ccc(C(=O)NCCN(C)C)cc2OC)ncc1C(F)(F)F [Example I-156]
0.69	COc1cc([C@@H](O)CO)ccc1Nc1ncc(C(F)(F)F)c(N[C@@H]2CCCC[C@H]2N(C)S(C)(=O)=O)n1 [Example I-157]
1	CCN1CCC(NC(=O)c2cc(OC)c(Nc3ncc(C(F)(F)F)c(N[C@@H]4CCCC[C@H]4N(C)C(C)=O)n3)cc2F)CC1 [Example I-161]
1	COc1cc(C(=O)NC2CCN(C)CC2)ccc1Nc1ncc(Cl)c(N[C@@H]2CCCC[C@H]2N(C)S(C)(=O)=O)n1 [Example I-162]
2	COc1cc(C(=O)NC2CCCN(C)C2)ccc1Nc1ncc(Cl)c(N[C@@H]2CCCC[C@H]2N(C)S(C)(=O)=O)n1 (stereo partly drawn) [Example I-163]
3	COCCN1CCC(NC(=O)c2cc(OC)c(Nc3ncc(Cl)c(N[C@@H]4CCCC[C@H]4N(C)S(C)(=O)=O)n3)cc2Cl)CC1 [Example I-167]
3	COc1cc(C(=O)NC2CCN(C)CC2)c(Cl)cc1Nc1ncc(Cl)c(N[C@@H]2CCCC[C@H]2N(C)S(C)(=O)=O)n1 [Example I-168]
4	CCN1CCC(NC(=O)c2cc(OC)c(Nc3ncc(Cl)c(N[C@@H]4CCCC[C@H]4N(C)S(C)(=O)=O)n3)cc2F)CC1 [Example I-169]
2	COc1cc(C(=O)NCCN(C)C)c(F)cc1Nc1ncc(Cl)c(N[C@@H]2CCC[C@H]2N(C)S(C)(=O)=O)n1 [Example I-170]
2	COc1cc(C(=O)NCCN(C)C)c(Cl)cc1Nc1ncc(Cl)c(N[C@@H]2CCCC[C@H]2N(C)S(C)(=O)=O)n1 [Example I-171]
2	COc1cc(C(=O)NCCN(C)C)c(Cl)cc1Nc1ncc(Br)c(N[C@@H]2CCCC[C@H]2N(C)S(C)(=O)=O)n1 [Example I-172]
2	COc1cc(Nc2ncc(C(F)(F)F)c(N[C@@H]3CCCC[C@H]3N(C)S(C)(=O)=O)n2)ccc1C(=O)NC1CCN(C)CC1 [Example I-173]
4	COc1cc(C(=O)NC2CCN(C)CC2)c(F)cc1Nc1ncc(Cl)c(N[C@@H]2CCCC[C@H]2N(C)S(C)(=O)=O)n1 [Example I-174]
0.64	COc1cc(C(=O)NC2CCN(C)CC2)ccc1Nc1ncc(C(C)C)c(N[C@@H]2CCCC[C@H]2N(C)S(C)(=O)=O)n1 [Example I-175]
2	COc1cc(Nc2ncc(C(F)(F)F)c(N[C@@H]3CCCC[C@H]3N(C)S(C)(=O)=O)n2)ccc1NC(C)=O [Example I-177]
4	COc1cc(N2CCN(C(C)(C)C)CC2)ccc1Nc1ncc(Br)c(N[C@@H]2CCCC[C@H]2N(C)S(C)(=O)=O)n1 [Example I-182]
4	COc1cc(N2CCN(C(C)(C)C)CC2)ccc1Nc1ncc(Cl)c(N[C@@H]2CCCC[C@H]2N(C)S(C)(=O)=O)n1 [Example I-183]
4	CC(=O)Nc1ccc(Nc2ncc(C(F)(F)F)c(N[C@@H]3CCCC[C@H]3N(C)S(C)(=O)=O)n2)cc1C [Example I-186]
6	CC(=O)Nc1ccc(Nc2ncc(C(F)(F)F)c(N[C@@H]3CCCC[C@H]3N(C)S(C)(=O)=O)n2)cc1Cl [Example I-187]
16	CCN([C@@H]1CCCC[C@H]1Nc1nc(Nc2ccc(NC(C)=O)c(C)c2)ncc1C(F)(F)F)S(C)(=O)=O [Example I-188]
9	CCN([C@@H]1CCCC[C@H]1Nc1nc(Nc2ccc(NC(C)=O)c(OC)c2)ncc1C(F)(F)F)S(C)(=O)=O [Example I-189]
13	COc1cc(Nc2ncc(Cl)c(N[C@@H]3CCCC[C@H]3NC(C)=O)n2)cc(OC)c1OC [Example I-190]

— patent publication US20110071158A1, “NEW COMPOUNDS” (BOEHRINGER INGELHEIM INTERNATIONAL GMBH, priority 2009, published 2011)
